{"source": "ChEMBL document CHEMBL1141631", "about": "“Novel ketooxazole based inhibitors of fatty acid amide hydrolase (FAAH)” (Bioorg Med Chem Lett, 2008)", "key": {"[1]": {"target": "T1, Fatty-acid amide hydrolase 1 (Homo sapiens, UniProt O00519)", "T1 sequence (O00519 whole entry)": "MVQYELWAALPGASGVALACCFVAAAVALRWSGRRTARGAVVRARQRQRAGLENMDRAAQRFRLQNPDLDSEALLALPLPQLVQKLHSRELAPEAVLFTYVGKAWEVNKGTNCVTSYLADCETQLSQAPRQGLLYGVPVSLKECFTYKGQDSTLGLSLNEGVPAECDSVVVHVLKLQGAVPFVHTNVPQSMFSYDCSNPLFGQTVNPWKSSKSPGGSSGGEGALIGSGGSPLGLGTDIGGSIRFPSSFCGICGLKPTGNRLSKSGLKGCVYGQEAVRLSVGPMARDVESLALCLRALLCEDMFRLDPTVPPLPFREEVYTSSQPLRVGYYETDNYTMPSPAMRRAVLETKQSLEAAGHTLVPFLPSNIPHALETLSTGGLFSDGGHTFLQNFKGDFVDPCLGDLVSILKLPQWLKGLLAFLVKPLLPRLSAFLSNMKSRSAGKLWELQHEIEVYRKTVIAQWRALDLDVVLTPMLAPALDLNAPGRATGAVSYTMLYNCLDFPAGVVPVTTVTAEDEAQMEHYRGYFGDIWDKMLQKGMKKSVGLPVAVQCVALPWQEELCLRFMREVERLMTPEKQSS", "experiment": "Inhibition of human FAAH"}, "[2]": {"species": "Rattus norvegicus", "experiment": "Reversal of tactile allodynia in spinal nerve ligated rat model", "format": "functional"}, "[3]": {"species": "Rattus norvegicus", "experiment": "Toxicity in spinal nerve ligated rat model assessed as motor impairment by rotarod test", "format": "organism-based", "settings": "in vivo"}, "[4]": {"experiment": "Plasma concentration in spinal nerve ligated rat model at 4 mg/kg, iv followed by infusion of 6 mg/kg/hr after 6 hrs", "format": "ADME, organism-based"}, "[5]": {"system": "Rattus norvegicus", "experiment": "Reversal of tactile allodynia in spinal nerve ligated rat model at 4 mg/kg, iv followed by infusion of 6 mg/kg/hr after 6 hrs", "format": "functional, organism-based"}, "[6]": {"experiment": "Aqueous solubility in water", "format": "physicochemical"}}, "note": "Calls of active or inactive are those of the source. The calls are words filed in the database; no cut-off is given here.", "data": [{"compound": "O=C(CCCC1CCN(C(=O)c2ccccc2)CC1)c1ncco1", "values": [{"measurement": "IC50", "setting": "[1]", "value": 0.077, "unit": "µM"}]}, {"compound": "O=C(CCCC1CCN(C(=O)CCc2ccccc2)CC1)c1ncco1", "values": [{"measurement": "IC50", "setting": "[1]", "value": 0.022, "unit": "µM"}]}, {"compound": "CC(C)c1ccc(CN2CCC(CCCC(=O)c3ncco3)CC2)cc1", "values": [{"measurement": "ED50", "setting": "[2]", "value": 7.3, "unit": "mg/kg"}, {"measurement": "Activity", "setting": "[3]", "value": "Non-toxic"}, {"measurement": "concentration at 6 h", "setting": "[4]", "value": 1.2, "unit": "µM"}, {"measurement": "IC50", "setting": "[1]", "value": 0.0036, "unit": "µM"}, {"measurement": "Activity", "setting": "[5]", "value": "Active"}, {"measurement": "solubility", "setting": "[6]", "value": "> 0.4", "unit": "mg/mL"}]}, {"compound": "CC(C)S(=O)(=O)N1CCC(CCCC(=O)c2ncco2)CC1", "values": [{"measurement": "IC50", "setting": "[1]", "value": 0.14, "unit": "µM"}]}, {"compound": "CC(C)(C)OC(=O)N1CCC(CCCC(=O)c2ncco2)CC1", "values": [{"measurement": "IC50", "setting": "[1]", "value": 0.002, "unit": "µM"}]}, {"compound": "O=C(CCCC1CCN(C(=O)CCC2CCCCC2)CC1)c1ncco1", "values": [{"measurement": "IC50", "setting": "[1]", "value": 0.003, "unit": "µM"}]}, {"compound": "COc1cccc(CN2CCC(CCCC(=O)c3ncco3)CC2)c1", "values": [{"measurement": "IC50", "setting": "[1]", "value": 0.034, "unit": "µM"}]}, {"compound": "O=C(CCCC1CCNCC1)c1ncco1", "values": [{"measurement": "IC50", "setting": "[1]", "value": 5.7, "unit": "µM"}]}, {"compound": "O=C(CCCCCCc1ccccc1)c1ncc(-c2ccccn2)o1", "values": [{"measurement": "solubility", "setting": "[6]", "value": 0.016, "unit": "mg/mL"}]}, {"compound": "O=C(CCCC1CCN(C(=O)OCc2ccccc2)CC1)c1ncco1", "values": [{"measurement": "IC50", "setting": "[1]", "value": 0.004, "unit": "µM"}]}, {"compound": "O=C(CCCCCCc1ccccc1)c1ncco1", "values": [{"measurement": "IC50", "setting": "[1]", "value": 0.043, "unit": "µM"}]}, {"compound": "COc1ccc(CN2CCC(CCCC(=O)c3ncco3)CC2)cc1", "values": [{"measurement": "IC50", "setting": "[1]", "value": 0.13, "unit": "µM"}]}, {"compound": "O=C(CCCC1CCN(S(=O)(=O)c2ccccc2)CC1)c1ncco1", "values": [{"measurement": "IC50", "setting": "[1]", "value": 0.0025, "unit": "µM"}]}]}
